Results taken from patent publication US20240182442A1, “ANHYDROUS POLYMORPHS OF ANDROGEN RECEPTOR ANTAGONIST, PREPARATION METHOD THEREFOR, AND USE THEREOF” (SUZHOU KINTOR PHARMACEUTICALS, INC., priority 2021, published 2024).
Values belong to the compound of their own block, whether it stands above or below them.

Assays:
[1] = Heat treatment test under nitrogen protection (crystal transformation); type: physicochemical; settings: for crystal transformation on heating: nitrogen
Source text: At the same time, the above crystal transformation phenomenon can also be confirmed by the absorption/exothermic peaks appearing in FIG. 7 and FIG. 11.

[2] = Suspension competition test of mixed crystalline forms A/B/C/D in saturated solution (thermodynamic transition); type: physicochemical
Method: To study the thermodynamic transition relationship of the four anhydrous polymorphs (respectively corresponding to A/B/C/D), samples (each sample was about 5 mg) having crystalline forms A/B/C/D were mixed and added respectively under the conditions of 5° C./room temperature (about 20° C.)/50° C./90° C. to a saturated solution of the compound of formula I (for example, ethanol or methyl tert-butyl ether) (about 1.0 mL), and stirred (magnetic stirring, about 800 rpm). solid was separated (centrifugation, about 10000 rpm, 1 min), and XRPD test was performed.

[3] = Dynamic vapor sorption (DVS) hygroscopicity evaluation, with XRPD before and after; type: physicochemical
Method: The DVS curves were collected on a DVS Intrinsic Dynamic Moisture Sorption meter from SMS (Surface Measurement Systems). The relative humidity at 25° C. was corrected with the deliquescence points of LiCl, Mg (NO3)2 and KCl.

[4] = Solid-state stability, one week storage, tested by XRPD and HPLC; type: physicochemical; settings: for Purity (Peak area %) / Relative purity (%/Control): one week; for Purity (Peak area %): HPLC; for Relative purity (%/Control): vs 5° C. sealed control
Source text: Samples were removed after one week, and the obtained samples were characterized and tested by XRPD and HPLC to respectively detect changes in crystalline form and purity.

[5] = Pharmacokinetic study, skin application to SD rats; type: in vivo, SD rats (Sprague-Dawley rats); settings: for ratio of AUC(0-t) on day 7 to day 1: 12 mg/kg skin application once a day for 7 days
Source text: The obtained blood concentration data were simultaneously used to calculate the relevant pharmacokinetic parameters using the pharmacokinetic processing software WinNonlin v5.2 […] for plasma pharmacokinetic characterization analysis.

relative stability of the crystalline form ([1]; under heating conditions): more stable than crystalline forms A/C
SMILES: COc1c(C#N)ccc(N2C(=O)C(C)(C)N(c3ccc(C)nc3)C2=S)c1F [crystalline form B, 4-[4,4-dimethyl-3-(6-methylpyridin-3-yl)-5-oxo-2-thioxoimidazolidin-1-yl]-3-fluoro-2-methoxybenzonitrile]

crystal transformation by suspension agitation ([2]; less than 90° C.): transformed into the form D | crystal transformation on heating ([1]; heated to about 160° C. and then cooled to room temperature): transformed into crystalline form B
SMILES: COc1c(C#N)ccc(N2C(=O)C(C)(C)N(c3ccc(C)nc3)C2=S)c1F [crystalline form A, 4-[4,4-dimethyl-3-(6-methylpyridin-3-yl)-5-oxo-2-thioxoimidazolidin-1-yl]-3-fluoro-2-methoxybenzonitrile]

hygroscopicity (conclusion in words) ([3]; DVS, 0% RH to 80% RH, 25° C.): almost no hygroscopicity | crystalline form before and after the DVS test (XRPD) ([3]; before vs after DVS experiment): maintained the same crystalline form | water absorbed (moisture absorption, DVS) ([3]; relative humidity increased from 0% RH to 80% RH, 25° C.): 0.14 wt % | Solid crystalline form after one week ([4]; 5° C., sealed (control)): Crystalline form D | Purity (Peak area %) ([4]; 5° C., sealed (control)): 99.9 Peak area % | Solid crystalline form after one week ([4]; 25° C./60% RH, open): Crystalline form D | Purity (Peak area %) ([4]; 25° C./60% RH, open): 99.9 Peak area % | Relative purity (%/Control) ([4]; 25° C./60% RH, open): 100.0 %/Control | Solid crystalline form after one week ([4]; 40° C./75% RH, open): Crystalline form D | Purity (Peak area %) ([4]; 40° C./75% RH, open): 99.9 Peak area % | Relative purity (%/Control) ([4]; 40° C./75% RH, open): 100.0 %/Control | ratio of AUC(0-t) on day 7 to day 1 ([5]; female SD rats): 0.942 | ratio of AUC(0-t) on day 7 to day 1 ([5]; male SD rats): 1.30 | accumulation after repeated administration ([5]; male and female SD rats, 12 mg/kg skin application, 7 days): no obvious accumulation
SMILES: COc1c(C#N)ccc(N2C(=O)C(C)(C)N(c3ccc(C)nc3)C2=S)c1F [crystalline form D, 4-[4,4-dimethyl-3-(6-methylpyridin-3-yl)-5-oxo-2-thioxoimidazolidin-1-yl]-3-fluoro-2-methoxybenzonitrile]
relative stability of the crystalline form ([2]; at room temperature): more stable than the crystalline forms A/B/C

crystal transformation on heating ([1]; further heated to about 166° C. and cooled to room temperature): transformed into crystalline form B | crystal transformation on heating ([1]; heated to about 148° C.): transformed into crystalline forms B/D
SMILES: COc1c(C#N)ccc(N2C(=O)C(C)(C)N(c3ccc(C)nc3)C2=S)c1F [crystalline form C, 4-[4,4-dimethyl-3-(6-methylpyridin-3-yl)-5-oxo-2-thioxoimidazolidin-1-yl]-3-fluoro-2-methoxybenzonitrile]
